Test results from ChEMBL document CHEMBL1128314, “Absolute configuration of (+)-[fluoro(hydroxyphenylphosphinyl)methyl]-phosphonic acid, a specific inhibitor of Na(+)-gradient-dependent Na(+)-phosphate cotransport across renal brush border membrane, by X-ray crystallographic analysis of its (-)-quinine salt” (J Med Chem, 1995).

Species: Rattus norvegicus
Assay: The compound was tested for inhibition of Sodium-Phosphate co-transport in rat renal Brush border membrane
Format: functional

Structure (SMILES): O=P(O)(O)C(F)P(=O)(O)c1ccccc1 (stereo unspecified)
- Ki: 360 µM
